From patent publication US8501802B2, “Co-crystals of duloxetine and COX-INHIBITORs for the treatment of pain” (Laboratorios del Dr. Esteve, S.A., priority 2008, dated 2013)
Counter-ions that a name gives are not always drawn.

Conditions: for Δ % weight 24 h / Δ % weight 48 h / Δ % weight 6 days: 64±5% relative humidity, 22±2° C.; for KF (t = 0): Karl Fischer value at the beginning of the study; for Hygroscopicity class according to the scale: PharmaEuropa scale of % incorporation of water
Procedure: The objective was to measure the hygroscopicity of the salts of the present invention, and comparing it with the one of the known salt of each counter part of the salts. The increasing of the weight will be measured in order to evaluate the incorporation of water in the samples, together with the Karl Fischer factor.
The scale is the following:
Preparation of the Humidity chamber: A supersaturated solution of sodium nitrite (45 g/50 ml) is prepared and introduced in a humidification chamber (samplaterecord). The chamber is maintained at a temperature of 22±2° C. during 24 hours before use, and humidity is controlled each day.
The variation of the weight is controlled and the following percentage is calculated: Δ%weight=(Pn−P1)/P1×100 wherein: P1 is the initial weight, Pn is the weight measured for the sample.

Structure (SMILES) | Δ % weight 24 h | Δ % weight 48 h | Δ % weight 6 days | KF (t = 0) | Hygroscopicity class according to the scale
CNCC[C@H](Oc1cccc2ccccc12)c1cccs1.CNCC[C@H](Oc1cccc2ccccc12)c1cccs1.COc1ccc2cc([C@H](C)C(=O)O)ccc2c1.COc1ccc2cc([C@H](C)C(=O)O)ccc2c1.COc1ccc2cc([C@H](C)C(=O)O)ccc2c1 | 0% | 0.09% | 0.13% | 0.36 | not hygroscopic
CNCC[C@H](Oc1cccc2ccccc12)c1cccs1 [Duloxetine HCl] | 0.19% | 0.26% | 0.18% | 0.33 | not hygroscopic
COc1ccc2cc([C@H](C)C(=O)[O-])ccc2c1.[Na+] [sodium naproxen] | 14.39% | 14.39% | 14.3% | 1.04 | hygroscopic
